Test results: patent US10059717B2, “Urea compounds containing 3,4-dihydropyrimido[4,5-D]pyrimidin-2(1H)-one skeleton as protein kinase inhibitors” (KOREA INSTITUTE OF SCIENCE AND TECHNOLOGY, priority 2016, dated 2018)

Experiments:
[1] = system: Ba/F3 (N-Ras G12D); assay: Proliferation inhibitory activity, Ba/F3; type: cell-based; details: Mus musculus, BaF3; Ba/F3 (N-Ras G12D) cell line; read-out: Proliferation inhibitory efficacy (GI50, μM) Ba/F3 (N-Ras G12D)
Method: GI50 values were calculated by measuring the proliferation inhibitory efficacy of the compounds of the present invention on mt-NRAS (G12D) Ba/F3, U937 (wt-NRAS) and OCI-AML3 (mt-NRAS) cell lines.

[2] = biological target: LCK (Homo sapiens, UniProt P06239); assay: Kinase panel biochemical assay; details: 1 μM single concentration, read-out: % residual enzyme activity
Method: (§1) In order to measure the protein kinase inhibitory activity (% inhibition) of the compounds of the present invention, biochemical assays were performed on the full kinase panel listed in the following Table 1.
(§2) As an test compound, 1-(3-(7-((6-(4-ethylpiperazine-1-carbonyl)pyridin-3-yl)amino)-1-methyl-2-oxo-1,4-dihydropyrimido[4,5-d]pyrimidin-3(2H)-yl)-4-methylphenyl)-3-(2-methoxyphenyl)urea (Compound No. 14) was used. The kinase inhibitory efficacy was measured upon treatment with a 1 μM single concentration of the test compound to calculate % residual enzyme activity value.
(§3) ABL1, FGFR2, TAOK2/TAO1, EPHA5, EPHB2, EPHB3, RET, LYN B, EPHA2, FRK/PTK5, EPHA8, LCK, EPHB4, FYN, KHS/MAP4K5, DDR1, EPHA3, P38a/MAPK14, EPHA4, FMS, EPHB1, HCK, FGFR1, ABL2/ARG, EPHA6, c-Src, ACK1, FLT4NEGFR3, ERBB4/HER4, DDR2, KDRNEGFR2, LYN, ZAK/MLTK, YES/YES1, BLK, FGR, MLCK2/MYLK2, TAOK1, BMX/ETK, BTK, EPHA1, JAK1, P38b/MAPK11, TIE2/TEK, FLT1NEGFR1, TXK, SRMS, RAF1, SIK1, MLK3/MAP3K11, PEAK1, TRKA, EPHA7, GLK/MAP4K3, MLK2/MAP3K10, TEC, CSK, TRKC, FES/FPS, SIK2, FGFR3, BRK, YSK4/MAP3K19, ARAF, PDGFRb, TNK1, GCK/MAP4K2, PDGFRa, TNIK, TAK1, ERBB2/HER2, LIMK1, HIPK4, FER, EGFR, JAK2, HPK1/MAP4K1, TRKB, RIPK3, LOK/STK10, LIMK2, MLK1/MAP3K9, BRAF, MEKK3, MEK5, STK32B/YANK2, FGFR4, MEKK2, SLK/STK2, FLT3, PKAcg, TAOK3/JIK, TYRO3/SKY, SIK3, IR, LRRK2, PYK2, NEK11, p70S6K/RPS6KB1, LATS2.

[3] = biological target: EPHA5 (Homo sapiens, UniProt P54756); assay: Kinase panel biochemical assay; details: 1 μM single concentration, read-out: % residual enzyme activity
Method: as §1, §2, §3

[4] = biological target: RAF1 (Homo sapiens, UniProt P04049); assay: Kinase panel biochemical assay; details: 1 μM single concentration, read-out: % residual enzyme activity
Method: as §1, §2, §3

[5] = biological target: c-Src (Homo sapiens, UniProt P12931); assay: Kinase panel biochemical assay; details: 1 μM single concentration, read-out: % residual enzyme activity
Method: as §1, §2, §3

[6] = biological target: EPHA1 (Homo sapiens, UniProt P21709); assay: Kinase panel biochemical assay; details: 1 μM single concentration, read-out: % residual enzyme activity
Method: as §1, §2, §3

[7] = biological target: BLK (Homo sapiens, UniProt P51451); assay: Kinase panel biochemical assay; details: 1 μM single concentration, read-out: % residual enzyme activity
Method: as §1, §2, §3

[8] = biological target: STK32B/YANK2 (Homo sapiens, UniProt Q9NY57); assay: Kinase panel biochemical assay; details: 1 μM single concentration, read-out: % residual enzyme activity
Method: as §1, §2, §3

[9] = biological target: MEKK2 (Homo sapiens, UniProt Q9Y2U5); assay: Kinase panel biochemical assay; details: 1 μM single concentration, read-out: % residual enzyme activity
Method: as §1, §2, §3

[10] = biological target: ACK1 (Homo sapiens, UniProt Q07912); assay: Kinase panel biochemical assay; details: 1 μM single concentration, read-out: % residual enzyme activity
Method: as §1, §2, §3

[11] = biological target: p70S6K/RPS6KB1 (Homo sapiens, UniProt P23443); assay: Kinase panel biochemical assay; details: 1 μM single concentration, read-out: % residual enzyme activity
Method: as §1, §2, §3

[12] = biological target: RIPK3 (Homo sapiens, UniProt Q9Y572); assay: Kinase panel biochemical assay; details: 1 μM single concentration, read-out: % residual enzyme activity
Method: as §1, §2, §3

[13] = biological target: FLT4NEGFR3 (Homo sapiens, UniProt P35916); assay: Kinase panel biochemical assay; details: 1 μM single concentration, read-out: % residual enzyme activity
Method: as §1, §2, §3

[14] = biological target: SIK2 (Homo sapiens, UniProt Q9H0K1); assay: Kinase panel biochemical assay; details: 1 μM single concentration, read-out: % residual enzyme activity
Method: as §1, §2, §3

[15] = biological target: P38a/MAPK14 (Homo sapiens, UniProt Q16539); assay: Kinase panel biochemical assay; details: 1 μM single concentration, read-out: % residual enzyme activity
Method: as §1, §2, §3

[16] = biological target: EPHA3 (Homo sapiens, UniProt P29320); assay: Kinase panel biochemical assay; details: 1 μM single concentration, read-out: % residual enzyme activity
Method: as §1, §2, §3

[17] = biological target: SLK/STK2 (Homo sapiens, UniProt Q9H2G2); assay: Kinase panel biochemical assay; details: 1 μM single concentration, read-out: % residual enzyme activity
Method: as §1, §2, §3

[18] = biological target: MLK3/MAP3K11 (Homo sapiens, UniProt Q16584); assay: Kinase panel biochemical assay; details: 1 μM single concentration, read-out: % residual enzyme activity
Method: as §1, §2, §3

[19] = biological target: DDR2 (Homo sapiens, UniProt Q16832); assay: Kinase panel biochemical assay; details: 1 μM single concentration, read-out: % residual enzyme activity
Method: as §1, §2, §3

[20] = biological target: FGFR3 (Homo sapiens, UniProt P22607); assay: Kinase panel biochemical assay; details: 1 μM single concentration, read-out: % residual enzyme activity
Method: as §1, §2, §3

[21] = biological target: EPHA8 (Homo sapiens, UniProt P29322); assay: Kinase panel biochemical assay; details: 1 μM single concentration, read-out: % residual enzyme activity
Method: as §1, §2, §3

[22] = biological target: HIPK4 (Homo sapiens, UniProt Q8NE63); assay: Kinase panel biochemical assay; details: 1 μM single concentration, read-out: % residual enzyme activity
Method: as §1, §2, §3

[23] = biological target: HPK1/MAP4K1 (Homo sapiens, UniProt Q92918); assay: Kinase panel biochemical assay; details: 1 μM single concentration, read-out: % residual enzyme activity
Method: as §1, §2, §3

[24] = biological target: EGFR (Homo sapiens, UniProt P00533); assay: Kinase panel biochemical assay; details: 1 μM single concentration, read-out: % residual enzyme activity
Method: as §1, §2, §3

[25] = biological target: EPHB1 (Homo sapiens, UniProt P54762); assay: Kinase panel biochemical assay; details: 1 μM single concentration, read-out: % residual enzyme activity
Method: as §1, §2, §3

[26] = biological target: SIK3 (Homo sapiens, UniProt Q9Y2K2); assay: Kinase panel biochemical assay; details: 1 μM single concentration, read-out: % residual enzyme activity
Method: as §1, §2, §3

[27] = biological target: EPHB2 (Homo sapiens, UniProt P29323); assay: Kinase panel biochemical assay; details: 1 μM single concentration, read-out: % residual enzyme activity
Method: as §1, §2, §3

[28] = biological target: BMX/ETK (Homo sapiens, UniProt P51813); assay: Kinase panel biochemical assay; details: 1 μM single concentration, read-out: % residual enzyme activity
Method: as §1, §2, §3

Sequence of P38a/MAPK14 (Q16539 whole entry): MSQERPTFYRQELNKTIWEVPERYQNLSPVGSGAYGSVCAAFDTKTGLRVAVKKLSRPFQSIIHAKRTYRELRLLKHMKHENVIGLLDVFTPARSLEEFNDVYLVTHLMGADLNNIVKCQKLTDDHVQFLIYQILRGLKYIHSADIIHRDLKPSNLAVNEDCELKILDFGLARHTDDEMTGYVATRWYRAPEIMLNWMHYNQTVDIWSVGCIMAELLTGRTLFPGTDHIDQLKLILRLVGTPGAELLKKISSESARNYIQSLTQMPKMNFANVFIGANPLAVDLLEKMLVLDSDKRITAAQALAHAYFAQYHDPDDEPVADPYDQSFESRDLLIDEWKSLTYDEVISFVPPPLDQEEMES
Sequence of EGFR (P00533 25-1210): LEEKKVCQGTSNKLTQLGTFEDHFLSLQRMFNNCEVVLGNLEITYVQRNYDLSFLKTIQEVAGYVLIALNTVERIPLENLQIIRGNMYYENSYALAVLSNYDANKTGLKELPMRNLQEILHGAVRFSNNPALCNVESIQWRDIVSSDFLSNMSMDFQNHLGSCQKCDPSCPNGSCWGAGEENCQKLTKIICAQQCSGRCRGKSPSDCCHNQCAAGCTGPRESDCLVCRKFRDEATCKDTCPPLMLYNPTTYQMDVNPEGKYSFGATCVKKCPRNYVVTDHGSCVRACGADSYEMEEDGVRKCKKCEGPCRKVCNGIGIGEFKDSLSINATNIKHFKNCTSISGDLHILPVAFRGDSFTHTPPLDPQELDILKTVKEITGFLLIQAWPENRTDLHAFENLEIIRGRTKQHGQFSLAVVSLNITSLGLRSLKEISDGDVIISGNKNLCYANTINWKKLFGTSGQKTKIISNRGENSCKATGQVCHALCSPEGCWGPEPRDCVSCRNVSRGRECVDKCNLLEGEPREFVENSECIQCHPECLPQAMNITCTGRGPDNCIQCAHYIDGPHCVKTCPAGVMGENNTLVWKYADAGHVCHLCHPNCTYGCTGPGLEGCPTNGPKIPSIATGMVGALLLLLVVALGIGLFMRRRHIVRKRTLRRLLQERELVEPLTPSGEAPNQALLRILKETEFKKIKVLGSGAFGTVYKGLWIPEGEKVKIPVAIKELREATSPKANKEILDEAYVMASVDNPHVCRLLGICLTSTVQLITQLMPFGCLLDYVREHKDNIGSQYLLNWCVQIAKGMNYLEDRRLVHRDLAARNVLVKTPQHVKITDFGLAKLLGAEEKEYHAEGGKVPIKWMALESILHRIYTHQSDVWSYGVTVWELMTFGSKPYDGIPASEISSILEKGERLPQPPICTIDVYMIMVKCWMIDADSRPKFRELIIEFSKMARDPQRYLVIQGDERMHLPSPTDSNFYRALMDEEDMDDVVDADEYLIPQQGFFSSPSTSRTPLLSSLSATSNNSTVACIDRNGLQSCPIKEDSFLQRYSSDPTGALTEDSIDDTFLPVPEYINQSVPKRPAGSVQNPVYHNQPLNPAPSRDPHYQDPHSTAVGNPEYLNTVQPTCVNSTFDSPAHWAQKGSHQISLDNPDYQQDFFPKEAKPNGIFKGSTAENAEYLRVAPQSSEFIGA
Sequence of SIK3 (Q9Y2K2 whole entry): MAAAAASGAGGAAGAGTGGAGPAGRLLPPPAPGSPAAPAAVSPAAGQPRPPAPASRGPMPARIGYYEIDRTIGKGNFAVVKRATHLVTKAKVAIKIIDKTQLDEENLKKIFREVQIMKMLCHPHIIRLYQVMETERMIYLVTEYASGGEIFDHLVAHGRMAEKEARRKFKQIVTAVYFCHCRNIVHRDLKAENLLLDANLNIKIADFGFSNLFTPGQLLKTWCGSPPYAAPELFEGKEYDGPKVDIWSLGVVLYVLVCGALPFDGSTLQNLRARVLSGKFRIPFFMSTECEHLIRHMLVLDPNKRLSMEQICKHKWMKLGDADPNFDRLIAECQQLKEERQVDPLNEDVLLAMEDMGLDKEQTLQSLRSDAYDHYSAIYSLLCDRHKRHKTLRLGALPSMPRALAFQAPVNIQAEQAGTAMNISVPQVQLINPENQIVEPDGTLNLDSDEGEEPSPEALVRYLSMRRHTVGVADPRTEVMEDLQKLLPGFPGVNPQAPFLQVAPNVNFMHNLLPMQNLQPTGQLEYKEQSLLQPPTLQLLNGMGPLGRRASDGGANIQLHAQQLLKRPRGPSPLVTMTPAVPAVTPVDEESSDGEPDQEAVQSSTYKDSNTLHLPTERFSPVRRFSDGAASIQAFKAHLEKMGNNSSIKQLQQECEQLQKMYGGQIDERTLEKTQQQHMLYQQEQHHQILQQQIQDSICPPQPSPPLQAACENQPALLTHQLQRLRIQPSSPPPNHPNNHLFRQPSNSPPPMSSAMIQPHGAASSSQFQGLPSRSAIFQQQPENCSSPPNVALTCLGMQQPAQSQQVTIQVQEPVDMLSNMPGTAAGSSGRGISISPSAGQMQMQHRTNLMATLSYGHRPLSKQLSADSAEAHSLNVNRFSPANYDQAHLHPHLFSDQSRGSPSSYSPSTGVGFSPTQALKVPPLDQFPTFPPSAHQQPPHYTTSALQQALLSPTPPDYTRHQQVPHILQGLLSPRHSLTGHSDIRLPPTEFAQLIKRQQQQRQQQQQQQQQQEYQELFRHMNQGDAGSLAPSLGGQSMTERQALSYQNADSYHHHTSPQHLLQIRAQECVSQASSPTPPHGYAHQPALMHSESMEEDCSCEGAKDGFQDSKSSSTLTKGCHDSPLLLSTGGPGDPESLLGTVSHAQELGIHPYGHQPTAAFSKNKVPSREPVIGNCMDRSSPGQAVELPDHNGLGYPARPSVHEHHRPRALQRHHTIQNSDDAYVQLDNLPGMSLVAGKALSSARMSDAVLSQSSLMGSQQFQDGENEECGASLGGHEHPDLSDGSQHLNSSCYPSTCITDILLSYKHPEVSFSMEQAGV
Sequence of SLK/STK2 (Q9H2G2 whole entry): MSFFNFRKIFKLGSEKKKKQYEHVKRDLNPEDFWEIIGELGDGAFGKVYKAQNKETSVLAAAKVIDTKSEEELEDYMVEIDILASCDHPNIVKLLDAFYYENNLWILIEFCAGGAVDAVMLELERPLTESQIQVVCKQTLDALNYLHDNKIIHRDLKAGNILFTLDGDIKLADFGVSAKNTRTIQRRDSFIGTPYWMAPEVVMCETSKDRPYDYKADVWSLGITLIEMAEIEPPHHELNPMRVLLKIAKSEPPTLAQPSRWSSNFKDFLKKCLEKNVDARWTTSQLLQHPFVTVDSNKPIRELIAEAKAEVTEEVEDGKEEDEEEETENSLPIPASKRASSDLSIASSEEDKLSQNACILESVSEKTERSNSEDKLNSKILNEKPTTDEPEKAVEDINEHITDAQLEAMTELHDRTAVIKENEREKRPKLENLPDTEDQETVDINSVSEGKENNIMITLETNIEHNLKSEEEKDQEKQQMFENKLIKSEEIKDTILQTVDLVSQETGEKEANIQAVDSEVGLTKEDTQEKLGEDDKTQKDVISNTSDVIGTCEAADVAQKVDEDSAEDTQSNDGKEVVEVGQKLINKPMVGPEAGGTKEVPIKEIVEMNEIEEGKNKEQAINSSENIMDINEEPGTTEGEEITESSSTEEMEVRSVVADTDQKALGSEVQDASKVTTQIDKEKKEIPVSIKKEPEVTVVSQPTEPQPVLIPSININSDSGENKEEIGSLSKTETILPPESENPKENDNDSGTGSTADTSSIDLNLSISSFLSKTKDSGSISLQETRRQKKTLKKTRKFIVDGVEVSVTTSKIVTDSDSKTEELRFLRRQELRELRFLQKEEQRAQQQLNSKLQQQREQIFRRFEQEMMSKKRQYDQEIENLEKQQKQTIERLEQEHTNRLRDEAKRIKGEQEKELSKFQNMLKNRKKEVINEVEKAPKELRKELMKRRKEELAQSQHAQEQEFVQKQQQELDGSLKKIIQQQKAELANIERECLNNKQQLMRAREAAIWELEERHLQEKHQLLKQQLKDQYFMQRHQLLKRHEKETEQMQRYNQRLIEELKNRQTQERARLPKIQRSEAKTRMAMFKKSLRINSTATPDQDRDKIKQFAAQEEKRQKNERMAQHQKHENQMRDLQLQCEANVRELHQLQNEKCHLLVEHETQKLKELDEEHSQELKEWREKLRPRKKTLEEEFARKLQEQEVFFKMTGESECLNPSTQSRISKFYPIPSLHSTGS
Sequence of BLK (P51451 whole entry): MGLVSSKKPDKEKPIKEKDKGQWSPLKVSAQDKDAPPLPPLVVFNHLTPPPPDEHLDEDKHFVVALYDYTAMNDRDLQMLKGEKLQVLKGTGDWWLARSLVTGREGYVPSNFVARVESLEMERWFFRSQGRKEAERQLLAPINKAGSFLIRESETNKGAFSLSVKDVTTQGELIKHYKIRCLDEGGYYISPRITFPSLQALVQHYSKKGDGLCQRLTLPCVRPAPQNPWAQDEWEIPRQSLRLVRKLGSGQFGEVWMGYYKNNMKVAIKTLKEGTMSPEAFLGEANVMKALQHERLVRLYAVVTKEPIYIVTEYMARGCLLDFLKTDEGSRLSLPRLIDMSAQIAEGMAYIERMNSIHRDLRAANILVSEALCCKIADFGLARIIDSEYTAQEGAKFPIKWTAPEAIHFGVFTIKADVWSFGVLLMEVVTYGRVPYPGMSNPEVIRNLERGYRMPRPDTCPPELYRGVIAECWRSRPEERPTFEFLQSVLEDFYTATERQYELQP
Sequence of STK32B/YANK2 (Q9NY57 whole entry): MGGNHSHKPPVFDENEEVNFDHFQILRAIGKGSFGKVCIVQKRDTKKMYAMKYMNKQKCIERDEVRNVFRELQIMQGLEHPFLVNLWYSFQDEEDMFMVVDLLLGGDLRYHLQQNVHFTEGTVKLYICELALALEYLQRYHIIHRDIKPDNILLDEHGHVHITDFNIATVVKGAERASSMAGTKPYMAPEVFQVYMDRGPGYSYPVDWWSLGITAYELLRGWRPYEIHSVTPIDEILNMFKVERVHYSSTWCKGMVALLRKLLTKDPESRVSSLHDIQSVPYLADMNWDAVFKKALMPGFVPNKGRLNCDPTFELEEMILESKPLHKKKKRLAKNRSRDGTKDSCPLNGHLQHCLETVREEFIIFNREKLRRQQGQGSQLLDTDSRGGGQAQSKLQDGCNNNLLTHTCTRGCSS

GI50 [1]: 0.5 to 3 µM | remaining activity at 1 µM [2]: ≤ 30% | remaining activity at 1 µM [3]: ≤ 30% | remaining activity at 1 µM [4]: ≤ 30% | remaining activity at 1 µM [5]: ≤ 30% | remaining activity at 1 µM [6]: ≤ 30% | remaining activity at 1 µM [7]: ≤ 30% | remaining activity at 1 µM [8]: ≤ 30% | remaining activity at 1 µM [9]: ≤ 30% | remaining activity at 1 µM [10]: ≤ 30% | remaining activity at 1 µM [11]: ≤ 30% | remaining activity at 1 µM [12]: ≤ 30% | remaining activity at 1 µM [13]: ≤ 30% | remaining activity at 1 µM [14]: ≤ 30% | remaining activity at 1 µM [15]: ≤ 30% | remaining activity at 1 µM [16]: ≤ 30% | remaining activity at 1 µM [17]: ≤ 30% | remaining activity at 1 µM [18]: ≤ 30% | remaining activity at 1 µM [19]: ≤ 30% | remaining activity at 1 µM [20]: ≤ 30% | remaining activity at 1 µM [21]: ≤ 30% | remaining activity at 1 µM [22]: ≤ 30% | remaining activity at 1 µM [23]: ≤ 30% | remaining activity at 1 µM [24]: ≤ 30% | remaining activity at 1 µM [25]: ≤ 30% | remaining activity at 1 µM [26]: ≤ 30% | remaining activity at 1 µM [27]: ≤ 30% | remaining activity at 1 µM [28]: ≤ 30%
Compound: CCN1CCN(C(=O)c2ccc(Nc3ncc4c(n3)N(C)C(=O)N(c3cc(NC(=O)Nc5ccccc5OC)ccc3C)C4)cn2)CC1 [Compound No. 14, 1-(3-(7-((6-(4-ethylpiperazin-1-carbonyl)pyridin-3-yl)amino)-1-methyl-2-oxo-1,4-dihydropyrimido[4,5-d]pyrimidin-3(2H)-yl)-4-methylphenyl)-3-(2-methoxyphenyl)urea]
